In patent US9156796B2, “Benzoimidazole-carboxylic acid amide derivatives as APJ receptor modulators” (SANOFI, priority 2013, dated 2015):

Molecular target: T1, human apelin receptor (Homo sapiens, UniProt P35414)
T1 construct: expressed in transfected cells
T1 sequence (P35414 1-380): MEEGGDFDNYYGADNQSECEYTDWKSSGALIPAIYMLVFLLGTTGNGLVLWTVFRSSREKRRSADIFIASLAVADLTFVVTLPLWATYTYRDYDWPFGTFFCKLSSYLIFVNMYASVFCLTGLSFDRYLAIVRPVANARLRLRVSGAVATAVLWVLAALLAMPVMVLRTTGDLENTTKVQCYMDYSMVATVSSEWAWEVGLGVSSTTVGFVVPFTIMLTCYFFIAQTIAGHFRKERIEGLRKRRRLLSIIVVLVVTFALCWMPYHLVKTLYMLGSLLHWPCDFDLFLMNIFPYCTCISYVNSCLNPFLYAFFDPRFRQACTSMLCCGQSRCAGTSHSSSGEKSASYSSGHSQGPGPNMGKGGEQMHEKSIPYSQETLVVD
Experiment: Determination of agonism on the human apelin receptor by a calcium fluorescence assay (FLIPR)
Format: cell-based
Conditions: HEK293 cells stably transfected with human apelin receptor and Giaq protein, Fluo-4 calcium fluorescence, read-out: EC50 (APJ agonism)
In short: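 Agonist EC50s come from peak intracellular calcium transients recorded by FLIPR Tetra, scaled to the 1 μM apelin-13 maximum per plate. Test system: HEK293 stably transfected with human apelin receptor plus Giaq, Fluo-4-loaded (4 μM, 1 h, 37 °C, pH 7.4 buffer with probenecid); ≥7 concentrations, triplicates.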

Q: Which EC50 does the source give for CCCC(CO)NC(=O)c1ccc2c(c1)nc(CC1CCCC1)n2C(CC)CC (centres unmarked) [Example 181, 2-Cyclopentylmethyl-1-(1-ethyl-propyl)-1H-benzoimidazole-5-carboxylic acid (1-hydroxymethyl-butyl)-amide] here?
A: The EC50 was 6.95 µM.

Q: How did the EC50 turn out when CCC[C@H](NC(=O)c1ccc2c(c1)nc(Cc1cccs1)n2C(CC)CC)C(=O)O [Example 94, (S)-2-{[1-(1-Ethyl-propyl)-2-thiophen-2-ylmethyl-1H-benzoimidazole-5-carbonyl]-amino}-pentanoic acid] was run?
A: Its EC50 is 0.781 µM.

Q: With CC1CCCCC1n1c(Cc2cccs2)nc2cc(C(=O)N[C@@H](CC3CCCCC3)C(=O)O)ccc21 (stereo partly drawn) [Example 15, (S)-3-Cyclohexyl-2-{[1-(2-methyl-cyclohexyl)-2-thiophen-2-ylmethyl-1H-benzoimidazole-5-carbonyl]-amino}-propionic acid] as the compound, how does the EC50 read?
A: Its EC50 is 0.254 µM.

Q: C[C@@H]1CCCC[C@H]1n1c(Cc2cccs2)nc2cc(C(=O)NC(CC3CCCC3)C(=O)O)ccc21 (single isomer, unassigned) [Example 443] was tested. Which EC50 did it give?
A: Its EC50 is 1.45 µM.

Q: CCC(CC)n1c(Cc2cccs2)nc2cc(C(=O)N[C@H](CO)CCSC)ccc21 [Example 188, 1-(1-Ethyl-propyl)-2-thiophen-2-ylmethyl-1H-benzoimidazole-5-carboxylic acid ((S)-1-hydroxymethyl-3-methylsulfanyl-propyl)-amide] was tested. Which EC50 did it give?
A: Its EC50 is 4.52 µM.

Q: Which EC50 does the source give for CCC(CC)n1c(Cc2cccs2)nc2cc(C(=O)N[C@@H](CC(C)C)C(=O)NCC3CCCCO3)ccc21 (stereo partly drawn) [Example 386, 1-(1-Ethyl-propyl)-2-thiophen-2-ylmethyl-1H-benzoimidazole-5-carboxylic acid {(S)-3-methyl-1-[(tetrahydro-pyran-2-ylmethyl)-carbamoyl]-butyl}-amide] here?
A: The EC50 was 2.23 µM.

Q: Which EC50 does the source give for CCC(CC)n1c(Cc2cccs2)nc2cc(C(=O)N[C@@H](CC(C)C)C(=O)NC[C@H]3CCCO3)ccc21 [Example 367, 1-(1-Ethyl-propyl)-2-thiophen-2-ylmethyl-1H-benzoimidazole-5-carboxylic acid ((S)-3-methyl-1-{[(R)-1-(tetrahydro-furan-2-yl)methyl]-carbamoyl}-butyl)-amide] here?
A: The EC50 was 1.66 µM.

Q: With CCC(CC)n1c(Cc2cccs2)nc2cc(C(=O)N[C@@H](CC(C)C)C(=O)N3CC(C(=O)O)C3)ccc21 [Example 411, 1-((S)-2-{[1-(1-Ethyl-propyl)-2-thiophen-2-ylmethyl-1H-benzoimidazole-5-carbonyl]-amino}-4-methyl-pentanoyl)-azetidine-3-carboxylic acid] as the compound, how does the EC50 read?
A: Its EC50 is 0.822 µM.

Q: How did the EC50 turn out when CCC(CC)n1c(CC2CCCC2)nc2cc(C(=O)NC3(CO)CCCC3)ccc21 [Example 179, 2-Cyclopentylmethyl-1-(1-ethyl-propyl)-1H-benzoimidazole-5-carboxylic acid (1-hydroxymethyl-cyclopentyl)-amide] was run?
A: The EC50 was 25.2 µM.

Q: For CC(C)C[C@H](NC(=O)c1ccc2c(c1)nc(Cc1cccs1)n2CC(C)C)C(=O)O [Example 127, (S)-2-[(1-Isobutyl-2-thiophen-2-ylmethyl-1H-benzoimidazole-5-carbonyl)-amino]-4-methyl-pentanoic acid], which EC50 is on record?
A: The EC50 was 15 µM.

Q: Which EC50 does the source give for C[C@@H]1CCCC[C@H]1n1c(Cc2cccs2)nc2cc(C(=O)N[C@@H](CC3CCCCC3)[C@H](O)CC(=O)O)ccc21 [Example 74, (3R,4S)-5-Cyclohexyl-3-hydroxy-4-{[1-((1R,2R)-2-methyl-cyclohexyl)-2-thiophen-2-ylmethyl-1H-benzoimidazole-5-carbonyl]-amino}-pentanoic acid] here?
A: Its EC50 is 0.14 µM.

Q: With CCC(CC)n1c(Cc2cccs2)nc2cc(C(=O)N[C@@H](CC(C)C)C(=O)N3CCC(N(CC)CC)C3)ccc21 (stereo partly drawn) [Example 329, 1-(1-Ethyl-propyl)-2-thiophen-2-ylmethyl-1H-benzoimidazole-5-carboxylic acid [(S)-1-(3-diethylamino-pyrrolidine-1-carbonyl)-3-methyl-butyl]-amide] as the compound, how does the EC50 read?
A: Its EC50 is 0.362 µM.

Q: For CCC(CC)n1c(Cc2cccs2)nc2cc(C(=O)N[C@@H](CCSC)C(=O)O)ccc21 [Example 123, (S)-2-{[1-(1-Ethyl-propyl)-2-thiophen-2-ylmethyl-1H-benzoimidazole-5-carbonyl]-amino}-4-methylsulfanyl-butyric acid], which EC50 is on record?
A: The EC50 was 1.88 µM.

Q: With CC(C)C[C@H](NC(=O)c1ccc2c(c1)nc(CC1CCCC1)n2C1CCCCC1)C(=O)O [Example 112, (S)-2-[(1-Cyclohexyl-2-cyclopentylmethyl-1H-benzoimidazole-5-carbonyl)-amino]-4-methyl-pentanoic acid] as the compound, how does the EC50 read?
A: Its EC50 is 12.8 µM.

Q: How did the EC50 turn out when CCC(CC)n1c(Cc2ccco2)nc2cc(C(=O)N[C@@H](CC3CCCCC3)C(=O)O)ccc21 [Example 8, (S)-3-Cyclohexyl-2-{[1-(1-ethyl-propyl)-2-furan-2-ylmethyl-1H-benzoimidazole-5-carbonyl]-amino}-propionic acid] was run?
A: The EC50 was 0.107 µM.

Q: For CC(C)C[C@H](NC(=O)c1ccc2c(c1)nc(Cc1ccco1)n2C1CCCCC1C)C(=O)O (single isomer, unassigned) [Example 418], which EC50 is on record?
A: The EC50 was 0.248 µM.

Q: For CC(C)C[C@H](NC(=O)c1ccc2c(c1)nc(Cc1ccco1)n2C1CCCCC1C)C(=O)O (stereo partly drawn) [Example 86, (S)-2-{[2-Furan-2-ylmethyl-1-(2-methyl-cyclohexyl)-1H-benzoimidazole-5-carbonyl]-amino}-4-methyl-pentanoic acid], which EC50 is on record?
A: Its EC50 is 0.088 µM.

Q: With CCC(CC)n1c(Cc2cccs2)nc2cc(C(=O)N[C@@H](CC(C)C)C(=O)NCCCCN3CCCC3)ccc21 [Example 253, 1-(1-Ethyl-propyl)-2-thiophen-2-ylmethyl-1H-benzoimidazole-5-carboxylic acid [(S)-3-methyl-1-(4-pyrrolidin-1-yl-butylcarbamoyl)-butyl]-amide] as the compound, how does the EC50 read?
A: The EC50 was 0.242 µM.

Q: For CCC(CC)n1c(CC2CCCC2)nc2cc(C(=O)N[C@@H](CC(C)C)C(=O)O)ccc21 [Example 129, (S)-2-{[2-Cyclopentylmethyl-1-(1-ethyl-propyl)-1H-benzoimidazole-5-carbonyl]-amino}-4-methyl-pentanoic acid], which EC50 is on record?
A: The EC50 was 2.68 µM.

Q: With CCC(CC)n1c(Cc2cccs2)nc2cc(C(=O)N[C@@H](CC(C)C)C(=O)N(C)C)ccc21 [Example 357, 1-(1-Ethyl-propyl)-2-thiophen-2-ylmethyl-1H-benzoimidazole-5-carboxylic acid ((S)-1-dimethyl-carbamoyl-3-methyl-butyl)-amide] as the compound, how does the EC50 read?
A: Its EC50 is 0.389 µM.

Q: How did the EC50 turn out when CCC(CC)n1c(Cc2cccs2)nc2cc(C(=O)N[C@@H](CC(C)C)C(=O)NCCc3ccc(OC)cc3)ccc21 [Example 361, 1-(1-Ethyl-propyl)-2-thiophen-2-ylmethyl-1H-benzoimidazole-5-carboxylic acid {(S)-1-[2-(4-methoxy-phenyl)-ethylcarbamoyl]-3-methyl-butyl}-amide] was run?
A: The EC50 was 25 µM.

Q: CCC(CC)n1c(Cc2cccs2)nc2cc(C(=O)N[C@@H](CC(C)C)C(=O)NC3CCC3)ccc21 [Example 215, 1-(1-Ethyl-propyl)-2-thiophen-2-ylmethyl-1H-benzoimidazole-5-carboxylic acid ((S)-1-cyclobutylcarbamoyl-3-methyl-butyl)-amide] was tested. Which EC50 did it give?
A: Its EC50 is 1.45 µM.

Q: For CCC(CC)n1c(Cc2ccco2)nc2cc(C(=O)N[C@H](CC3CCCCC3)C(=O)O)ccc21 [Example 9, (R)-3-Cyclohexyl-2-{[1-(1-ethyl-propyl)-2-furan-2-ylmethyl-1H-benzoimidazole-5-carbonyl]-amino}-propionic acid], which EC50 is on record?
A: The EC50 was 0.585 µM.
